This passage reports TIME results from ChEMBL document CHEMBL3862034, “Measurement of Ligand-Target Residence Times by 1H Relaxation Dispersion NMR Spectroscopy” (J Med Chem, 2016).

Experiment [1] concerns Fusobacterium nucleatum. Kind of experiment: Binding affinity to Fusobacterium nucleatum class I aptamer assessed as ligand-target residence time at 1H-8 resonance by (1)H relaxation dispersion NMR spectroscopy.
In experiment [2] the test system is Caldanaerobacter subterraneus subsp. tengcongensis. Kind of experiment: Binding affinity to Thermoanaerobacter tengcongensis class I aptamer assessed as ligand-target residence time at 1H-8 resonance by (1)H relaxation dispersion NMR spectroscopy.
The species entered for experiment [3] is Bos taurus. Kind of experiment: Binding affinity to bovine trypsin assessed as ligand-target residence time at 1H-4/5 resonance by (1)H relaxation dispersion NMR spectroscopy.
For experiment [4], the species on record is Bos taurus. Kind of experiment: Binding affinity to bovine trypsin assessed as ligand-target residence time at 1H-9 resonance by (1)H relaxation dispersion NMR spectroscopy.

Take `NCc1c[nH]c2nc(N)[nH]c(=O)c12`: the TIME in experiment [1] is 1.75e-07 h; in experiment [2], 6.39e-08 h.

Consider `Nc1ccc2cc3ccc(N)cc3nc2c1`, for which the figures for the TIME in experiment [3] and in experiment [4] were 5.28e-08 h and 5.56e-08 h, respectively.
